pEC50, pIC50: −log10 of the molar value.
How the values were obtained:
[1] = Measurement of redox potential (DTT redox buffers, HPLC); assay type: physicochemical; details: DTT(Red)/DTT(Ox) redox buffers, 3 h, 30° C., 50% reduction of test compound
Procedure: A test compound (10 mM) was diluted 20-fold with each redox buffer solution and incubated for 3 h in a 30° C. water bath. Then, compounds were analyzed by HPLC. The area of peaks corresponding to the oxidized and reduced forms of test compound based on specific retention time was calculated and plotted as percent of total peak area against the Nernst equation value (mV) at x-axis. The Nernst equation value corresponding to 50% reduction of test compound was set as the midpoint redox potential value for test compound.
The redox potential values of the test compounds were analyzed based on the potential values established in redox buffer solutions where reduced and oxidized DTT are mixed at various ratios.

[2] = test system: Tyr 1175 phosphorylation of VEGF receptor-2 (VEGFR2) in HAEC; experiment: Immunoblot of VEGF-mediated signaling in PrxII knock-down HAEC; assay type: cell-based, human; details: HAECs depleted of PrxII expression, FIG. 5
Procedure: (§1) Cells were quickly washed in ice-cold phosphate-buffered saline (PBS) and lysed in extraction buffer containing 20 mM Hepes (pH 7.0), 1% Triton X-100, 150 mM NaCl, 10% glycerol, 1 mM EDTA, 2 mM EGTA, and 1 mM DTT, 5 mM Na3VO4, 5 mM NaF, 1 mM AEBSF, aprotinin (5 μg/mL), and leupeptin (5 μg/mL). After cen-trifugation at 12,000×g, the clarified cell extracts were used for immunoblotting. For re-blotting, the immunoblots were retrieved in a solution of 67 mM Tris (pH 6.7), 2% SDS, and 100 mM 2-mercaptoethanol at 60° C. for 30 min to remove antibodies and rinsed three times with a Tris-buffered saline (TBS) solution containing 1% Triton X-100. The retrieved membranes were subjected to new immunoblotting.
In human aortic endothelial cell (HAEC) and human pulmonary artery endothelial cell (PAEC) in which PrxII was knocked out by transfecting the PrxII siRNA, the ability of test compounds to replace the cellular function of PrxII was evaluated. That is, the efficacy of the new compounds was verified in terms of signaling pathways induced by VEGF that regulates the growth and migration of vascular endothelial cells in the aorta and pulmonary artery. Activation of VEGF-induced signaling pathway was analyzed by an immunoblot method using an antibody that specifically recognizes phosphorylation of Tyr 1175, which is a major phosphorylation site on VEGF receptor-2 (VEGFR2).

NIH-3T3 cells = experiment: Intracellular H2O2-eliminating activity (CM-H2DCF-DA fluorescence); assay type: cell-based; details: Mus musculus, NIH3T3, glucose oxidase, concentration at 50% reduction of intracellular H2O2
Procedure: The activity of test compounds in present invention to eliminate intracellular H2O2 was measured as follows. NIH-3T3 cells (ATCC) were seeded in a 35-mm culture dish at 2×10^5 cells/well. After culture for 24 hours, cells were serum-starved with phenol red free-basal DMEM containing 0.5% FBS for 6 h. Starved NIH 3T3 cells were pretreated with compounds diluted with phenol red free-basal DMEM at concentrations ([…]) for 30 min, followed by treatment with 20 mU of glucose oxidase (Gox) for 30 min. A reactive oxygen species-sensitive fluorescence dye, carboxymethyl-dichlorofluorescein-diacetate (CM-H2DCF-DA), which was prepared in 1 mM DMSO stock and diluted 500 times in phenol red free-basal DMEM, was added to the cells and incubated for 5 min. Then, cells were quickly rinsed with basal medium. Images were taken at excitation 497 nm/emission 518 nm settings using a fluorescence microscope. Three images at 10× magnification per sample were obtained, and fluorescence intensities from 30 or more individual cells per image were averaged.
The intracellular H2O2-eliminating activity of test compounds in present invention was measured using a live-cell imaging fluorescence probe (CM-HaDCF-DA). H2O2-eliminating activity was measured depending on ascending concentrations of the test compound and expressed as the percent of activity compared to the untreated control group. EC50 represents the concentration of test compound at 50% reduction of intracellular H2O2.

[3] = test system: Tyr 857 phosphorylation of PDGF receptor-β (PDGFRβ) in HASMC; experiment: Immunoblot of PDGF-mediated signaling in PrxII knock-down HASMC; assay type: cell-based, human; details: HASMC depleted of PrxII expression, FIG. 2
Procedure: as §1
In human aortic smooth muscle cell (HASMC) and human pulmonary artery smooth muscle cell (PASMC) in which PrxII was knocked out by transfecting the PrxII siRNA, the ability of test compounds to replace the cellular function of PrxII was evaluated. That is, the efficacy of the new compounds was verified in terms of signaling pathways induced by PDGF that regulates the growth and migration of vascular smooth muscle cells in the aorta and pulmonary artery. Activation of PDGF-induced signaling pathway was analyzed by an immunoblot method using an antibody that specifically recognizes phosphorylation of Tyr 857, which is a major phosphorylation site on PDGF receptor (PDGFRβ).

[4] = test system: yeast thioredoxin (Trx)/yeast Trx reductase (TR); experiment: Peroxidase activity assay (H2O2 reduction, NADPH oxidation); assay type: biochemical; details: 50 μM test compound, 3 μM yeast Trx, 1.5 μM yeast TR, 250 μM NADPH, 1.2 mM H2O2, 30° C.; NADPH oxidized per minute
Procedure: Hydrogen peroxide (H2O2)-reducing peroxidase activity of compounds in present invention was performed as follows. Peroxyredoxin activity was measured in reaction mixture (200 μL volume) containing 50 mM HEPES buffer (pH 7.0), 1 mM EDTA, 250 μM NADPH, 3 μM yeast thioredoxin (Trx), 1.5 μM yeast Trx reductase (TR), 50 μM test compound, and 1.2 mM H2O2.
Reaction was initiated by adding H2O2 and the decrease in absorbance at 340 nm was measured using Agilent UV8453 spectrophotometry (Hewlett Packard, USA) at 30° C. for 12 min. Initial reaction rate is the amount of NADPH oxidized per minute calculated from slope of the linear part of curve.
The H2O2-reducing peroxidase activity of the test compounds in present invention was measured in a reaction mixture containing thioredoxin (Trx)/thioredoxin reductase (TR), respectively.

[5] = test system: human aortic endothelial cell (HAEC); experiment: VEGF-induced proliferation assay, HAEC (PrxII siRNA); assay type: cell-based; details: for Degree of HAEC proliferation: VEGF-A 25 ng/mL, percent of untreated control; for pEC50: Homo sapiens, Endothelial cell, effective concentration increasing cell proliferation by 50%, VEGF-stimulated
Procedure: (§2) HAECs and PAECs were transfected with a PrxII-specific siRNA using RNAi MAX transfection reagent according to manufacturer's protocol. After 24 hours, transfected cells (3,000 cells/well) were seeded in a 96-well culture plate. At 12 h after seeding, cells were serum-starved for additional 18 h in EBM basal medium containing 0.5% FBS. Test compounds were serially diluted with the same basal medium containing 0.5% FBS, added to the cells ([…]), and incubated for 2 h. After treatment, cells were placed in fresh EBM medium containing 0.5% FBS and VEGF-A (25 ng/mL) for growth factor stimulation and further cultured for 24 h.
(§3) The degree of cell proliferation was measured using the Cell Titer-GLO kit ([…]). Data are the percent of luminescence intensity averaged from three replicate wells versus that of untreated control group.
In human aortic endothelial cell (HAEC) and human pulmonary artery endothelial cell (PAEC) in which PrxII was knocked out by transfecting the PrxII siRNA, the ability of test compounds to augment the VEGF-induced proliferation of vascular endothelial cells was evaluated. In Table 7, the degree of proliferation in the compound-treated groups is expressed as percent of the degree of proliferation in untreated control group. The effective concentrations of test compounds increasing cell proliferation by 50% (EC50) is also listed.

[6] = test system: human pulmonary artery smooth muscle cell (PASMC); experiment: PDGF-induced proliferation assay, PASMC (PrxII siRNA); assay type: cell-based; details: for Degree of PASMC proliferation: PDGF-BB 25 ng/mL, percent of untreated control; for pIC50: Homo sapiens, PASMC, 50% growth inhibition, PDGF-stimulated
Procedure: as §2, with “HASMCs” for “HAECs”, “PASMCs” for “PAECs”, “SmBM” for “EBM”, “PDGF-BB” for “VEGF-A”
as §3
(§4) In human aortic smooth muscle cell (HASMC) and human pulmonary artery smooth muscle cell (PASMC) in which PrxII was knocked out by transfecting the PrxII siRNA, the ability of test compounds to inhibit the PDGF-induced proliferation of vascular smooth muscle cells was evaluated. In Table 6, the degree of proliferation in the compound-treated groups is expressed as percent of the degree of proliferation in untreated control group. The concentrations of test compounds corresponding to 50% growth inhibition (IC50) is also listed.

[7] = test system: human aortic smooth muscle cell (HASMC); experiment: PDGF-induced proliferation assay, HASMC (PrxII siRNA); assay type: cell-based; details: for Degree of HASMC proliferation: PDGF-BB 25 ng/mL, percent of untreated control; for pIC50: Homo sapiens, HASMC, 50% growth inhibition, PDGF-stimulated
Procedure: as §2, with “HASMCs” for “HAECs”, “PASMCs” for “PAECs”, “SmBM” for “EBM”, “PDGF-BB” for “VEGF-A”
as §3, §4

Procedure for in vitro: Cytotoxicity tests were performed against vascular endothelial cells, vascular smooth muscle cells and hepatocytes. After treatment with ascending concentrations of each compound, the concentration of test compound corresponding to 50% cell viability (CC50) was measured.

Row | SMILES | Midpoint redox potential (E m) [1] | Effect on phosphorylation of Tyr 1175 on VEGFR2 [2] | pEC50 (NIH-3T3 cells) | Effect on phosphorylation of Tyr 857 on PDGFR [3] | CC50 (in vitro) | Peroxidase activity for H2O2 reduction [4] | Degree of HAEC proliferation ([5]; 2.5 nM) | Degree of HAEC proliferation ([5]; 5 nM) | Degree of HAEC proliferation ([5]; 10 nM) | Degree of HAEC proliferation ([5]; 25 nM) | Degree of HAEC proliferation ([5]; 50 nM) | Degree of HAEC proliferation ([5]; 100 nM) | pEC50 [5] | Degree of PASMC proliferation ([6]; 2.5 nM) | Degree of PASMC proliferation ([6]; 5 nM) | Degree of PASMC proliferation ([6]; 10 nM) | Degree of PASMC proliferation ([6]; 25 nM) | Degree of PASMC proliferation ([6]; 50 nM) | Degree of PASMC proliferation ([6]; 100 nM) | pIC50 [6] | also measured
1 | CN1C(=O)C2CSSC1(C)C(=O)N2Cc1ccccn1 (stereo not shown) [Compound 6, 1,8-dimethyl-6-(pyridin-2-ylmethyl)-2,3-dithia-6,8-diazabicyclo[3.2.2]nonan-7,9-dione] | −290.39 mV | strongly abolish the phosphorylation | 8.22 | strongly abolish the phosphorylation | 341000 nM | 4.57 nmol/min |  |  |  |  |  |  |  |  |  |  |  |  |  |  | 
2 | C=CCN1C(=O)C2SSC1C(=O)N2CC=C [Control compound (A5), reference compound] |  |  | 7.82 |  | 62300 nM | 4.25 nmol/min |  |  |  |  |  |  |  |  |  |  |  |  |  |  | 
3 | CN1C(=O)C2CSSC1(C)C(=O)N2Cc1ccccc1 (stereo not shown) [Compound 2, 6-benzyl-1,8-dimethyl-2,3-dithia-6,8-diazabicyclo[3.2.2]nonane-7,9-dione] | −293.19 mV | strongly abolish the phosphorylation | 8.19 | strongly abolish the phosphorylation | > 500000 nM | 5.05 nmol/min |  |  |  |  |  |  |  |  |  |  |  |  |  |  | 
4 | CCN1C(=O)C23COCCN2C(=O)C1CSS3 (stereo not shown) [Compound 10, 12-ethyltetrahydro-5H,10H-4,10a-(epiminomethano)[1,4]oxazino[3,4-c][1,2,4]dithiaze pine-5,11-dione] | −268.53 mV | strongly abolish the phosphorylation |  | strongly abolish the phosphorylation |  | 5.06 nmol/min | 111.6% | 122.8% | 127.6% | 140.7% | 175.1% | 159.0% | 7.71 | 90.5% | 54.1% | 44.1% | 21.9% | 17.5% | 7.0% | 8.08 | Degree of HASMC proliferation ([7]; 2.5 nM): 75.5%; Degree of HASMC proliferation ([7]; 5 nM): 53.8%; Degree of HASMC proliferation ([7]; 10 nM): 31.1%; Degree of HASMC proliferation ([7]; 25 nM): 4.6%; pIC50 [7]: 8.26
5 | CN1CCN2C(=O)C3CSSC2(C1)C(=O)N3Cc1ccccc1 (stereo not shown) [Compound 21, 12-benzyl-9-methylhexahydro-5H-4,10a-(epiminomethano)pyrazino[2,1-c][1,2,4]dithi azepine-5,11-dione] | −272.86 mV | strongly abolish the phosphorylation |  | strongly abolish the phosphorylation |  | 8.38 nmol/min | 105.0% | 122.7% | 154.6% | 190.1% | 202.0% | 141.2% | 8.00 | 69.9% | 49.6% | 18.7% | 6.0% | 7.1% | 0.0% | 8.35 | Degree of HASMC proliferation ([7]; 2.5 nM): 88.1%; Degree of HASMC proliferation ([7]; 5 nM): 63.9%; Degree of HASMC proliferation ([7]; 10 nM): 27.2%; Degree of HASMC proliferation ([7]; 25 nM): 4.0%; pIC50 [7]: 8.19

From patent publication US20260008784A1 (VASTHERA CO., LTD., priority 2022, published 2026)
